Patent US10285969B2, “Mangiferin-6-O-berberine salt and preparation method and use thereof” (CHANGZHOU DEZE MEDICAL SCIENCE CO., LTD, priority 2015, dated 2019)

Assays:
AMPK = assay: Activation of AMPK in L6 cells (Western blot of phospho-AMPK and phospho-ACC); assay type: cell-based, rat; settings: 1.25-5 μmol/L, 3 hours, dose-dependent
Procedure: The mangiferin-6-O-berberine salt dihydrate yielded using the method as disclosed in the above examples dissolves in DMSO. Before use, the mangiferin-6-O-berberine salt dihydrate is diluted by a culture medium or HBS. The ultimate concentration of DMSO is no more than 0.2%.
The rat L6 cell line is purchased from the ATCC. HG-DMEM is purchased GIBCO™. Fetal bovine serum (FBS) is purchased from Hyclone. Anti-AMPK, anti-ACC, antiphospho-AMPK (Thr172), antiphospho-ACC (ser79) polyclonal antibodies are purchased from Cell Signal Technology.
L6 cells were grown in HG-DMEM containing 10% (v/v) FBS, 100 U/ml penicillin and 100 U/ml streptomycin in a humidified atmosphere of 5% CO2 at 37° C. When the cells covered 60%, the medium was switched to HG-DMEM with 2% FBS and the culture medium was replaced every two days until the cells differentiation reached 90%.
Cells in 6-well plates were starved in serum-free HG-DMEM, and then different concentration gradient samples were added into serum-free HG-DMEM; the concentration of DMSO is 0.2%. The samples incubated for 3 hours in the cells. […]
Samples were electrophoresed on 10% SDS-polyacrylamide gels, and transferred to […] membranes under 100V and 1-2 hours in the transmembrane instrument. Protein in the gel was transferred to nitrocellulose membrane under the state of half dry, and the band was determined by Ponceau S (Ponceau S). […]

[1] = Stability under a high-humidity environment (moisture absorption weight gain); assay type: physicochemical
Procedure: (§1) Sample A: Mangiferin-6-O-berberine salt dihydrate
(§2) Sample B: Mangiferin-berberine salt yielded using the method as disclosed in WO2010/145192A1.
2. Instrument: One ten-thousandth electronic balance (Sartorius, Germany)
Weigh up accurately appropriate amount sample A in 3 glass gardens and sample B in 3 glass gardens separately; put the samples in a drug stability chamber with the condition being set to: 25° C./90% RH±5% RH and storage for 10 days. Weigh the samples accurately on the fifth day and tenth day; record the results of weighing and calculate weight percentage of moisture absorption.

[2] = Solubility in the hydrochloric acid solution of pH 1; assay type: physicochemical
Procedure: as §1, §2
2. Instrument: PHS-3C pH meter (Shanghai Kangyi)
Take pure water; add hydrochloric acid to adjust pH to 1 (25° C.±2° C.). Take the water 50 ml to different triangular flask; weigh up accurately 200 mg sample A and sample B which have been ground into powders and put them into the triangular flasks separately, shake and observe dissolved phenomena.
Take the water 50 ml to different triangular flasks; weigh up accurately sample A 400 mg and 600 mg which have been ground into powders and put the powders into the triangular flasks separately, shake and observe dissolving phenomena.

[3] = Pharmacokinetic comparison after single intragastric administration to SD rats; assay type: in vivo
Procedure: as §1
Sample B: Mangiferin-berberine salt yielded using the method disclosed in WO2010/145192A1.
A single intragastric administration of sample of A or B was given to SD rats at the dosage of 100 mg/kg and blood was sampled from jugular vein at 0, 0.083, 0.25, 0.5, 1, 1.5, 2, 3, 4, 5, 6, 7, 8, 12 and 24 h.
Preparation of the mangiferin reference solution: Mangiferin reference was weighed accurately and put into a 25 ml volumetric flask; methanol was added to make mangiferin dissolve, diluted to graduation. The mangiferin reference mother liquor is yielded for reserve. An appropriate amount of mangiferin reference mother liquor was taken out accurately and diluted to prepare the mangiferin reference solutions having a concentration of 2, 5, 10, 50, 100, 200 ng/ml.
Preparation of the berberine hydrochloride reference solution: The berberine hydrochloride reference was weighed accurately and put into a 25 ml volumetric flask; methanol was added to make the berberine hydrochloride dissolve, and dilute to graduation. The berberine hydrochloride reference mother liquor was yielded for reserve. An appropriate amount of berberine hydrochloride reference mother liquor was taken out accurately and diluted to prepare reference solution whose berberine concentration is 0.2, 0.5, 2, 10, 20, 50 ng/ml.
Preparation of the internal standard solution: Glibenclamide was weighed accurately and put into a 25 ml volumetric flask; acetonitrile was added to make glibenclamide dissolve, and dilute to graduation. The internal standard solution of glibenclamide was yielded, having a concentration of 50 ng/ml.
Blood sample processing method: Rat blood was put in a heparin anticoagulant centrifuge tube and centrifuged for 10 minutes at 6000 rpm, and the plasma was taken for reserve at −20° C. […]
The pharmacokinetic parameters are calculated with a non compartmental model in Pharsight Phoenix 6.3.

[4] = test system: non-alcoholic fatty liver combined with type 2 diabetes mellitus; assay: Improvement of metabolic disorder indices in patients, oral tablets for six months; assay type: in vivo, human; settings: after six months, tablets 75 mg two times per day oral
Procedure: The patients according to the criteria of diagnosing non-alcoholic fatty liver combined with type 2 diabetes mellitus oral administrated mangiferin-6-O-berberine salt tablets 75 mg (for the preparation method, reference may be made to Example 6) two times per day.

[5] = Physical and chemical properties: solubility in solvents; assay type: physicochemical
Text: The chemical structure of the mangiferin-6-O-berberine salt is as follows: […]

[6] = hydrochloric acid solution of pH 1
[7] = single intragastric 100 mg/kg, 0-24 h, n = 3, mean ± SD

COc1ccc2cc3[n+](cc2c1OC)CCc1cc2c(cc1-3)OCO2.O=c1c2cc(O)c([O-])cc2oc2cc(O)c([C@@H]3O[C@H](CO)[C@@H](O)[C@H](O)[C@H]3O)c(O)c12 [Mangiferin-6-O-berberine salt]
phosphorylation of ACC (AMPK): enhances significantly | phosphorylation of AMPK (AMPK): enhances significantly | weight percentage of moisture absorption (hygroscopicity) compared with the mangiferin-berberine salt disclosed in WO2010/145192A1 [1]: much smaller | solubility relative to the mangiferin-berberine salt disclosed in WO2010/145192A1 [2, 6]: three times | stability (of the solution) compared with the mangiferin-berberine salt disclosed in WO2010/145192A1 [2, 6]: much better | solubility in the hydrochloric acid solution of pH 1 ([2]; pH 1, 25° C.±2° C.): 12 mg/ml | AUC relative to that of the mangiferin-berberine salt ([3]; oral administration 100 mg/kg): 2 times | AUC0-t of Berberine in plasma [3, 7]: 669.72 ± 312.83 ng·h/mL | AUC0-t of Mangiferin in plasma [3, 7]: 1831.11 ± 510.25 ng·h/mL | ALT ([4]; n = 8, mean ± SD, base line 136.50): 51.85 U/L | APRI index ([4]; n = 8, base line 0.447): 0.203 | Urine microalbumin (1^+ is seen as 1) ([4]; n = 8, base line 0.60): 0 | TG ([4]; n = 8, base line 3.56): 1.41 mmol/L | Atherogenic index (AI) ([4]; n = 8, base line 4.12): 3.10 | HbA1C ([4]; n = 8, base line 7.18): 5.80% | Weight ([4]; n = 8, base line 73.35): 62.34 kg | AST ([4]; n = 8, base line 83.32): 39.20 U/L | Diastolic pressure ([4]; n = 8, base line 94.79): 76.39 mmHg | Systolic pressure ([4]; n = 8, base line 153.77): 125.86 mmHg | INS ([4]; n = 8, base line 197.99): 56.08 pmol/L | Liver color Doppler ultrasound ([4]; n = 8, base line fatty liver): normal | ISI ([4]; n = 8, base line −7.12): −5.80 | solubility in dilute hydrochloric acid ([5]; dilute hydrochloric acid): slightly soluble | solubility in methanol ([5]; methanol): slightly soluble | solubility in water ([5]; water): almost insoluble
